The results in this text go back to ChEMBL document CHEMBL5291721, “A preclinical secondary pharmacology resource illuminates target-adverse drug reaction associations of marketed drugs” (Nat Commun, 2023).

The target of test [1] is T1, Gastrin/cholecystokinin type B receptor (Homo sapiens, UniProt P32239).
T1 sequence (P32239 whole entry): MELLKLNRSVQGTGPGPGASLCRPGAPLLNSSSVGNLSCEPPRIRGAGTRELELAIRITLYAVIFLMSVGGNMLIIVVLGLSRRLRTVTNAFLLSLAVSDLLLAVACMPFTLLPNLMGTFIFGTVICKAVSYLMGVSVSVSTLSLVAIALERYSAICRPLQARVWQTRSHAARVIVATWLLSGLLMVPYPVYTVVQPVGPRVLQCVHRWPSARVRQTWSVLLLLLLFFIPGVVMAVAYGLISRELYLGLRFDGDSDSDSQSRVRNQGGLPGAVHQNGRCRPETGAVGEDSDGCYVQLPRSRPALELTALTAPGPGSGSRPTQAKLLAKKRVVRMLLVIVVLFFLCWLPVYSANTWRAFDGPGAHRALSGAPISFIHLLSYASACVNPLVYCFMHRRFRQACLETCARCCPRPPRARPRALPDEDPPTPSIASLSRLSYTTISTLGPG

Test [2] concerns the target T2, Muscarinic acetylcholine receptor M1 (Homo sapiens, UniProt P11229).
T2 sequence (P11229 whole entry): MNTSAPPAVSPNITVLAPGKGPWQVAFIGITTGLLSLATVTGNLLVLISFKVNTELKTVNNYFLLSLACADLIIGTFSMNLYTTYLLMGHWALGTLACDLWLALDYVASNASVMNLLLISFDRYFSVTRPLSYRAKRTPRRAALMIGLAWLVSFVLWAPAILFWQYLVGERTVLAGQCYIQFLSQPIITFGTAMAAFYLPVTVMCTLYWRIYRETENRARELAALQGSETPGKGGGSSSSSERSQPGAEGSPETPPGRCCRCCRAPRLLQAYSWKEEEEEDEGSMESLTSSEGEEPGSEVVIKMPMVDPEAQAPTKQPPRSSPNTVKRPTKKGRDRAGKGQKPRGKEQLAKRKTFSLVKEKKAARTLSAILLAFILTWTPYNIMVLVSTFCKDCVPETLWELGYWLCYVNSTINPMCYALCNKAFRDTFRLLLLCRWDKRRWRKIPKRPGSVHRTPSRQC
Format: functional.

Test [3] deals with T3, Endothelin-1 receptor (Homo sapiens, UniProt P25101).
T3 sequence (P25101 whole entry): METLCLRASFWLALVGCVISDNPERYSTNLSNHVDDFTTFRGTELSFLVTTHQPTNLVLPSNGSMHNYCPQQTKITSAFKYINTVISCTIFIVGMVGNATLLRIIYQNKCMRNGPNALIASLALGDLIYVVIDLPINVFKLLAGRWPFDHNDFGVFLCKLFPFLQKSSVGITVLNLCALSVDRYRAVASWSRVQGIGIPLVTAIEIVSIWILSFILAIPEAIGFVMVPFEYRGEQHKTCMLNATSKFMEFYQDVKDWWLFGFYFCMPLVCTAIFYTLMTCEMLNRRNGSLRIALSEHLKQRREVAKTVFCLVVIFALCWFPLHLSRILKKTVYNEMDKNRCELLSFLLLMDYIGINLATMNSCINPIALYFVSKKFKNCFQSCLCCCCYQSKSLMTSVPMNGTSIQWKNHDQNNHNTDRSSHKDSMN

In test [4] the target is Beta-1 adrenergic receptor (Homo sapiens, UniProt P08588). Format: functional.
Chain of Beta-1 adrenergic receptor (P08588 whole entry): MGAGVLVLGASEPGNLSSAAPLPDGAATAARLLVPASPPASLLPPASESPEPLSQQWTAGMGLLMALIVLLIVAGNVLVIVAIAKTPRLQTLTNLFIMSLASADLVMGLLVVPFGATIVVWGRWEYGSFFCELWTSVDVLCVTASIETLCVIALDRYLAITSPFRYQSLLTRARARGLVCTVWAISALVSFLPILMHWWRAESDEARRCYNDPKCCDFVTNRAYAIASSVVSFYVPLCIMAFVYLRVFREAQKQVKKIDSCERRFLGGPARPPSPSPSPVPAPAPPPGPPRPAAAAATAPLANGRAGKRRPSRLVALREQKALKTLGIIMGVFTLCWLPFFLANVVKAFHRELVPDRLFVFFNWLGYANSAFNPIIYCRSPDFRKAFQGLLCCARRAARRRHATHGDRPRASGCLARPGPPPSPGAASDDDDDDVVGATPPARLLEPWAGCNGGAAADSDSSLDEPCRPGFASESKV
Test [5] addresses Vasopressin V1a receptor (Homo sapiens, UniProt P37288).
Test [6] has as its target 5-hydroxytryptamine receptor 2B (Homo sapiens, UniProt P41595). Format: functional, cell-based.
Further: assay procedure not described here.

Chain of Vasopressin V1a receptor (P37288 whole entry): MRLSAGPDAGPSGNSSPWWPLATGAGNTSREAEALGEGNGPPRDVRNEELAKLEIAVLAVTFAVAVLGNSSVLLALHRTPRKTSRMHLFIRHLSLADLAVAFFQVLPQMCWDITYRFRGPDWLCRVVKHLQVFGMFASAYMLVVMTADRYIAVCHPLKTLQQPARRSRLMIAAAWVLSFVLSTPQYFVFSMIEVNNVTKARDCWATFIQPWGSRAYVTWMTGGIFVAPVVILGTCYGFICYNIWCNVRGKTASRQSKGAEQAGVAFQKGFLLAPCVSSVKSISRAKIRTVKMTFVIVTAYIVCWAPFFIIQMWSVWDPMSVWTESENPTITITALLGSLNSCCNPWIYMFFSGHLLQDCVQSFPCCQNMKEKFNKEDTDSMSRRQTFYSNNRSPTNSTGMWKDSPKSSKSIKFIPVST
Chain of 5-hydroxytryptamine receptor 2B (P41595 whole entry): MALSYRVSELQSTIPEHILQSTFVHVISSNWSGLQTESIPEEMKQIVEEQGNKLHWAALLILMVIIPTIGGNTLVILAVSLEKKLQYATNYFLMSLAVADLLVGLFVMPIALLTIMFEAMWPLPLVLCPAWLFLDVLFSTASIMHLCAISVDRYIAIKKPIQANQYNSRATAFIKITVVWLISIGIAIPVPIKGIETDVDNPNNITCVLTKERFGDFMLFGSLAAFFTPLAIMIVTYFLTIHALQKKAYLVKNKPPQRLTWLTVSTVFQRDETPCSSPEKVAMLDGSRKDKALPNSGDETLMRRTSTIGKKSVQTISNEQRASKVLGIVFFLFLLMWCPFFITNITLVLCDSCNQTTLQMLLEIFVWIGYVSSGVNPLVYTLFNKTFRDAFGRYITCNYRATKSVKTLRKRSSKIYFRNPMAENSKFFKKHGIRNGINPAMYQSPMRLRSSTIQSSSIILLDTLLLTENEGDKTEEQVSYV

In the case of `COc1ccc2c(c1)C(=O)N(CCc1ccc(S(=O)(=O)NC(=O)NC3CCCCC3)cc1)C(=O)C2(C)C` [GLIQUIDONE], the AC50 (as a rule, the concentration giving half of the maximal activity seen) in test [1] was > 10 µM; in test [2] it was > 30 µM; in test [3], > 30 µM; in test [4], > 30 µM; in test [5], > 30 µM.

As for `CO/N=C(\C(=O)N[C@@H]1C(=O)N2C(C(=O)[O-])=C(C[N+]3(C)CCCC3)CS[C@H]12)c1csc(N)n1`, the AC50 in test [1] is > 30 µM; in test [2] it was > 300 µM; in test [3], > 300 µM; in test [4], > 300 µM; in test [5] it was > 300 µM.

Turning to `O=C(CCCCCCC(=O)Nc1ccccc1)NO` [VORINOSTAT], the AC50 in test [1], in test [2], in test [3], in test [4] and in test [5] was > 30 µM each time.

As to `CCc1nn(CCCN2CCN(c3cccc(Cl)c3)CC2)c(=O)n1CCOc1ccccc1` [NEFAZODONE], the AC50 in test [1] was > 30 µM; in test [2], > 10 µM; in test [3] it was > 30 µM; in test [4], > 10 µM; in test [5], > 10 µM.

`CC(=O)OCC(=O)[C@@]1(O)CC[C@H]2[C@@H]3CCC4=CC(=O)CC[C@]4(C)[C@H]3C(=O)C[C@@]21C` [CORTISONE ACETATE]: the AC50 in test [6] is > 30 µM.

In the case of `CCCS(=O)(=O)Nc1ccc(F)c(C(=O)c2c[nH]c3ncc(-c4ccc(Cl)cc4)cc23)c1F` [VEMURAFENIB], the AC50 in test [1], in test [2], in test [3], in test [4] and in test [5] was > 30 µM each time.

As to `CCN(CC)CCNC(=O)c1cc(Cl)c(N)cc1OC` [METOCLOPRAMIDE], the AC50 was > 30 µM in test [1], > 30 µM in test [3], > 10 µM in test [4] and > 10 µM in test [5].

Consider `CNC(=O)c1cc(Oc2ccc(NC(=O)Nc3ccc(Cl)c(C(F)(F)F)c3)cc2)ccn1` [SORAFENIB], for which the AC50 is > 10 µM in test [1]; > 30 µM in test [2]; > 30 µM in test [3]; 28 µM in test [4]; > 30 µM in test [5].

As to `COC(=O)C1=C(C)NC(C)=C(C(=O)OCC(C)C)C1c1ccccc1[N+](=O)[O-]` (configuration not stated) [NISOLDIPINE], the AC50 in test [4] is > 10 µM.

On to `OCc1cc([C@@H](O)CNCCCCCCOCCOCc2c(Cl)cccc2Cl)ccc1O` [VILANTEROL], for which the AC50 in test [2], in test [3] and in test [5] was > 30 µM throughout.

In the case of `CC(C(=O)O)c1ccc(C(=O)c2cccs2)cc1` (configuration not stated) [SUPROFEN], the AC50 in test [2] and in test [5] was > 10 µM in each case.

Regarding `NS(=O)(=O)c1cc2c(cc1Cl)NCNS2(=O)=O` [HYDROCHLOROTHIAZIDE], the AC50 in test [1] is > 30 µM; in test [3], > 30 µM; in test [4], > 10 µM; in test [5], > 10 µM.

Turning to `COC(=O)[C@@H]1CC2=CC(=O)CC[C@]2(C)[C@@]23O[C@@H]2C[C@@]2(C)[C@@H](CC[C@@]24CCC(=O)O4)[C@H]13` [EPLERENONE], the AC50 in test [1], in test [2], in test [3], in test [4] and in test [5] was > 30 µM in each case.

As to `COC(=O)N[C@H](C(=O)N1CCC[C@H]1c1nc(-c2ccc(-c3ccc(-c4c[nH]c([C@@H]5CCCN5C(=O)[C@@H](NC(=O)OC)C(C)C)n4)cc3)cc2)c[nH]1)C(C)C`, the AC50 in test [1], in test [2], in test [3], in test [4] and in test [5] was > 30 µM throughout.

On to `NC(N)=Nc1nc(CSCCC(N)=NS(N)(=O)=O)cs1` [FAMOTIDINE], for which the AC50 in test [1] was > 30 µM; in test [3], > 30 µM; in test [4], > 10 µM; in test [5], > 10 µM.

For the compound `CC(N)Cc1ccccc1` (configuration not stated) [AMPHETAMINE], the AC50 in test [1], in test [2], in test [3], in test [4] and in test [5] was > 30 µM in each case.

Consider `NC1=NC(=O)C(c2ccccc2)O1` (configuration not stated) [PEMOLINE], for which the AC50 in test [1] was > 30 µM; in test [4], > 10 µM.

With `COC(=O)N[C@H](C(=O)N[C@@H](Cc1ccccc1)[C@@H](O)CN(Cc1ccc(-c2ccccn2)cc1)NC(=O)[C@@H](NC(=O)OC)C(C)(C)C)C(C)(C)C` [ATAZANAVIR], the AC50 in test [1] is > 30 µM; in test [2] it was > 10 µM; in test [4], > 10 µM; in test [5], > 30 µM.

As to `CN1C(=O)CC(C)(c2ccccc2)C1=O` (configuration not stated) [METHSUXIMIDE], the AC50 in test [2], in test [4] and in test [5] was > 10 µM throughout.

In the case of `N[C@@H](C(=O)N[C@@H]1C(=O)N2C(C(=O)O)=C(Cl)CS[C@H]12)c1ccccc1` [CEFACLOR ANHYDROUS], the half-maximal activity concentration (AC50) in test [1], in test [2], in test [3], in test [4] and in test [5] was > 30 µM throughout.

As to `CC(C)Cc1ccc(CC(=O)O)cc1` [IBUFENAC], the half-maximal activity concentration (AC50) in test [2], in test [3], in test [4] and in test [5] was > 30 µM in each case.

In the case of `Cc1ccc(C(=O)c2cc(O)c(O)c([N+](=O)[O-])c2)cc1` [TOLCAPONE], the AC50 in test [2], in test [4] and in test [5] was > 10 µM each time.

As to `CCOC(=O)[C@H](CCc1ccccc1)N[C@@H](C)C(=O)N1CCC[C@H]1C(=O)O`, the AC50 in test [1] is > 30 µM; in test [3] it was > 30 µM; in test [4], > 10 µM; in test [5], > 10 µM.

Turning to `C[C@@H]1O[C@@H]1P(=O)(O)O` [FOSFOMYCIN], the AC50 in test [2], in test [4] and in test [5] was > 10 µM each time.

Take `NC[C@H]1CC[C@H](C(=O)O)CC1` [TRANEXAMIC ACID]: the half-maximal activity concentration (AC50) in test [4] was > 10 µM.

With `CC(C)NCC(O)COc1ccc(COCCOC(C)C)cc1` (configuration not stated) [BISOPROLOL], the AC50 is > 30 µM in test [1], > 10 µM in test [2], > 30 µM in test [3] and > 10 µM in test [5].

Regarding `C[C@H]1C[C@@H]2[C@H]([C@@H](O)C[C@@]3(C)[C@H]2CC[C@]3(O)C(=O)CO)[C@@]2(C)C=CC(=O)C=C12` [METHYLPREDNISOLONE], the AC50 in test [4] was > 10 µM.

With `Cc1cccc(C)c1OCC(C)N` (configuration not stated) [MEXILETINE], the half-maximal activity concentration (AC50) in test [1], in test [3] and in test [4] was > 30 µM each time.

Consider `CC(=O)c1ccc2c(c1)N(CCCN1CCN(CCO)CC1)c1ccccc1S2` [ACETOPHENAZINE], for which the half-maximal activity concentration (AC50) in test [2], in test [3] and in test [5] was > 30 µM throughout.

In the case of `CC(C)NNC(=O)c1ccncc1` [IPRONIAZID], the AC50 in test [3] and in test [4] was > 30 µM in each case.

Turning to `O=C(O)c1cc(-c2ccc(F)cc2F)ccc1O` [DIFLUNISAL], in test [4], the AC50 was > 10 µM.

Consider `CC(C)(C(=O)c1cccnc1)c1cccnc1` [METYRAPONE], for which the AC50 in test [4] is > 10 µM.

Regarding `CN1CCCC(n2nc(Cc3ccc(Cl)cc3)c3ccccc3c2=O)CC1` (configuration not stated) [AZELASTINE], the results for the AC50 in test [3], in test [4] and in test [5] were > 30 µM, 18 µM and > 30 µM, respectively.

`CCC[C@@H]1C[C@@H](C(=O)N[C@@H]([C@H]2O[C@H](SC)[C@H](O)[C@@H](O)[C@H]2O)[C@H](C)Cl)N(C)C1` [CLINDAMYCIN]: the AC50 in test [1] was > 30 µM; in test [3], > 30 µM; in test [4] it was > 10 µM; in test [5] it was > 10 µM.

Take `CC[C@H](C)C(=O)O[C@H]1C[C@H](O)C=C2C=C[C@H](C)[C@H](CC[C@@H](O)C[C@@H](O)CC(=O)O)[C@H]21` [PRAVASTATIN]: the AC50 in test [3] and in test [4] was > 30 µM throughout.
